Source: patent US11541051B2, “Compositions and methods for treating CDK4/6-mediated cancer” (Icahn School of Medicine at Mount Sinai, priority 2016, dated 2023)

Columns and labels:
Assay type in all cases: cell-based
CDK4/6 [1] = assay: Characterization of CDK4/6 degraders/disruptors in various breast cancer and melanoma cells (summary, Examples 12 and 13)
Experimental: Specific exemplary abemaciclib-, ribociclib-, and palbociclib-based CDK4/6 degraders/disruptors were characterized in various different breast cancer and melanoma cells (Examples 12 and 13, FIGS. 10-23). […] This efficacy in suppressing CDK4/6 expression and CDK4/6 activity correlated with efficacy in inhibiting cancer cell proliferation.
(§1) Protein concentrations were determined by BCA from cell lysates and equal amounts of protein are loaded to a Bis-Tris 4-12% gel. Gels were run at 80 V for 4 h using 1× running buffer (25 mM Tris, pH 8.3, […] glycine, 0.1% SDS). Proteins were transferred to a nitrocellulose membrane for 2 h at 100 V using transfer buffer (25 mM Tris, pH 8.3, […] glycine, 20% methanol). Ponceau S staining (0.1% Ponceau S, 1% acetic acid) was used to confirm transfer of proteins to the membrane followed by blocking of the membrane for 30 min at room temperature using blocking buffer (5% dry nonfat milk, 0.1% Tween, 0.02% sodium azide in TBS). The blocked membrane is incubated with primary antibodies (1:1000 dilution) in blocking buffer at 4° C. overnight. When primary phosphor-antibodies were used, then the membrane is incubated with 5% BSA instead of milk. The membrane was washed three times, 10 min each, with wash buffer (0.1% Tween in TBS) followed by incubation with secondary HRP conjugated antibody (1:5000 dilution) in 2.5% dry nonfat milk, 0.1% Tween in TBS for 1 h at room temperature. The membrane was washed three times, 10 min each, with wash buffer (0.1% Tween in TBS). Membranes are incubated with ECL for 1 min and proteins are detected after exposure to a blue autoradiographic film.

T47D breast cancer cells = assay: Crystal violet staining (clonogenic assay) of T47D breast cancer cells (Example 13, FIGS. 22, 23); conditions: 11 days
Experimental: Cells were cultured for 7-11 days in the presence of different compounds. Media with compound was replenished every two days. At the end of the experiment, media was aspirated and viable cells were stained with 0.5% crystal violet dye.

CDK4/6 [2] = assay: Western blot of CDK4, CDK6 and phospho-Rb in A375 melanoma cells treated with degraders (Example 12, FIGS. 12, 13, 16, 18); conditions: 1 or 3 μM, 24 h
Experimental: (§2) Breast cancer cell lines (MCF7, T47D, and ZR-75-1) and melanoma cell lines (A375, SK-MEL-2, SK-MEL-30, and WM1382) were cultured in the presence of DMEM or RPMI supplemented with 10% FBS in the presence of penicillin and streptomycin.
as §1
A375 melanoma cells (FIG. 13) were treated with 1 or 3 μM Ribociclib (RB), YX030-126, YX030-108, YX030-107, YX030-086, YX030-085 or XY028-133 for 24 h, then lysed and immunoblotted with antibodies to CDK4, CDK6, cyclin A, PLK1, phospho-Rb (pRb), and actin.
A375 melanoma cells (FIG. 16, panel A) were treated with 0.3 or 1 μM XY028-140, YX039-65, YX039-48, YX039-123, YX039-56, YX039-124 or YX039-147 for 24 h. A375 melanoma cells were treated with 1 or 3 μM XY028-140, YX039-56, YX039-65 or XY028-133 (FIG. 16, panel B). Cells were lysed and immunoblotted with antibodies to phospho-Rb (pRb), total Rb, PLK1, cyclin A, CDK4, CDK6, and actin.
A375 melanoma cells (FIG. 18) were treated with 1 or 3 μM XY028-133, YX044-18, YX044-22, XY028-140, YX044-19 or YX044-38 for 24 h, then lysed and immunoblotted with antibodies to phospho-Rb (pRb), total Rb, PLK1, cyclin A, CDK4, CDK6, and actin.

CDK4/6 [3] = assay: Western blot of CDK4/6 and phospho-Rb in T47D breast cancer cells treated with degraders (Example 12, FIGS. 10 B, 17, 19); conditions: 0.3 or 1 μM, 24 h
Experimental: as §2, §1
MCF7 breast cancer cells were treated with 1 or 5 μM XY019-095, XY019-098, XY019-0100, XY019-105A, XY019-105B, XY019-106, or XY019-108 for 24 h, then lysed and immunoblotted with antibodies to CDK4, CDK6, and actin (FIG. 10, panel A). […] T47D breast cancer cells were treated with 0.1, 0.3, 1, 3, 10, or 30 μM XY019-106 for 24 h, then lysed and immunoblotted with antibodies to phospho-Rb (pRB), CDK4, and actin (FIG. 10, panel B).
T47D breast cancer cells (FIG. 17) were treated with 0.3 or 1 μM XY028-140, YX039-48, YX039-123, YX039-56, YX039-124, YX039-65, YX039-147 or YX039-74 for 24 h, then lysed and immunoblotted with antibodies to phospho-Rb (pRb), total Rb, PLK1, cyclin A, CDK4, CDK6, and actin.
T47D breast cancer cells (FIG. 19) were treated with 0.3 or 1 μM XY028-133, YX044-18, YX044-22, XY028-140, YX044-19 or YX044-38 for 24 h, then lysed and immunoblotted with antibodies to phospho-Rb (pRb), total Rb, PLK1, cyclin A, CDK4, CDK6, and actin.

In the case of `CC(=O)c1c(C)c2cnc(Nc3ccc(N4CCN(C(=O)CCCCC(=O)N[C@H](C(=O)N5C[C@H](O)C[C@H]5C(=O)NCc5ccc(-c6scnc6C)cc5)C(C)(C)C)CC4)cn3)nc2n(C2CCCC2)c1=O` [XY028-132, (2S,4R)-1-((S)-2-(6-(4-(6-((6-acetyl-8-cyclopentyl-5-methyl-7-oxo-7,8-dihydropyrido[2,3-d]pyrimidin-2-yl)amino)pyridin-3-yl)piperazin-1-yl)-6-oxohexanamido)-3,3-dimethylbutanoyl)-4-hydroxy-N-(4-(4-methylthiazol-5-yl)benzyl)pyrrolidine-2-carboxamide], the “suppression of both CDK4/6 expression and CDK4/6 activity (summary)” value (shortened to “suppression”) (CDK4/6 [1]) is reported as “especially effective in suppressing both CDK4/6 expression and CDK4/6 activity”.
For `CC(=O)c1c(C)c2cnc(Nc3ccc(N4CCN(C(=O)CCCCCCNc5cccc6c5C(=O)N(C5CCC(=O)NC5=O)C6=O)CC4)cn3)nc2n(C2CCCC2)c1=O` (centres unmarked) [XY028-144, 4-((7-(4-(6-((6-acetyl-8-cyclopentyl-5-methyl-7-oxo-7,8-dihydropyrido[2,3-d]pyrimidin-2-yl)amino)pyridin-3-yl)piperazin-1-yl)-7-oxoheptyl)amino)-2-(2,6-dioxopiperidin-3-yl)isoindoline-1,3-dione], the “suppression” value (CDK4/6 [1]) was “especially effective in suppressing both CDK4/6 expression and CDK4/6 activity”.
For `Cc1nc2c(F)cc(-c3nc(Nc4ccc(CN5CCN(C(=O)CCCCCCC(=O)Nc6cccc7c6C(=O)N(C6CCC(=O)NC6=O)C7=O)CC5)cn4)ncc3F)cc2n1C(C)C` (centres unmarked) [YX26-66, N-(2-(2,6-dioxopiperidin-3-yl)-1,3-dioxoisoindolin-4-yl)-8-(4-((6-((5-fluoro-4-(4-fluoro-1-isopropyl-2-methyl-1H-benzo[d]imidazol-6-yl)pyrimidin-2-yl)amino)pyridin-3-yl)methyl)piperazin-1-yl)-8-oxooctanamide], the “suppression” value (CDK4/6 [1]) was “especially effective in suppressing both CDK4/6 expression and CDK4/6 activity”.
`CC(=O)c1c(C)c2cnc(Nc3ccc(N4CCN(C(=O)COc5cccc6c5C(=O)N(C5CCC(=O)NC5=O)C6=O)CC4)cn3)nc2n(C2CCCC2)c1=O` (centres unmarked) [YX039-48, 4-(2-(4-(6-((6-acetyl-8-cyclopentyl-5-methyl-7-oxo-7,8-dihydropyrido[2,3-d]pyrimidin-2-yl)amino)pyridin-3-yl)piperazin-1-yl)-2-oxoethoxy)-2-(2,6-dioxopiperidin-3-yl)isoindoline-1,3-dione] was tested, and the “suppression” value (CDK4/6 [1]) was “especially effective in suppressing both CDK4/6 expression and CDK4/6 activity”.
In the case of `CC(=O)c1c(C)c2cnc(Nc3ccc(N4CCN(C(=O)CCc5cccc6c5C(=O)N(C5CCC(=O)NC5=O)C6)CC4)cn3)nc2n(C2CCCC2)c1=O` (centres unmarked) [YX039-56, 3-(7-(3-(4-(6-((6-acetyl-8-cyclopentyl-5-methyl-7-oxo-7,8-dihydropyrido[2,3-d]pyrimidin-2-yl)amino)pyridin-3-yl)piperazin-1-yl)-3-oxopropyl)-1-oxoisoindolin-2-yl)piperidine-2,6-dione], the “suppression” value (CDK4/6 [1]) is reported as “especially effective in suppressing both CDK4/6 expression and CDK4/6 activity”, the “inhibition of cancer cell proliferation compared with palbociclib (crystal violet staining)” value (T47D breast cancer cells; 0.003, 0.01 or 0.03 μM) is reported as “inhibited cancer cell proliferation more effective that palbociclib at the same concentration” and the “inhibition of cancer cell proliferation compared with palbociclib (crystal violet staining)” value (T47D breast cancer cells; 0.03, 0.1, 0.3, 1 or 3 μM) is reported as “inhibited cancer cell proliferation more effective that palbociclib at the same concentration”.
`CC(=O)c1c(C)c2cnc(Nc3ccc(N4CCN(C(=O)CNc5cccc6c5CN(C5CCC(=O)NC5=O)C6=O)CC4)cn3)nc2n(C2CCCC2)c1=O` (centres unmarked) [YX039-65, 3-(4-((2-(4-(6-((6-acetyl-8-cyclopentyl-5-methyl-7-oxo-7,8-dihydropyrido[2,3-d]pyrimidin-2-yl)amino)pyridin-3-yl)piperazin-1-yl)-2-oxoethyl)amino)-1-oxoisoindolin-2-yl)piperidine-2,6-dione] was tested, and the “suppression” value (CDK4/6 [1]) was “especially effective in suppressing both CDK4/6 expression and CDK4/6 activity”, the “inhibition of cancer cell proliferation compared with palbociclib (crystal violet staining)” value (T47D breast cancer cells; 0.003, 0.01 or 0.03 μM) was “inhibited cancer cell proliferation more effective that palbociclib at the same concentration” and the “inhibition of cancer cell proliferation compared with palbociclib (crystal violet staining)” value (T47D breast cancer cells; 0.03, 0.1, 0.3, 1 or 3 μM) was “inhibited cancer cell proliferation more effective that palbociclib at the same concentration”.
In the case of `CC(=O)c1c(C)c2cnc(Nc3ccc(N4CCN(C(=O)CCc5cccc6c5CN(C5CCC(=O)NC5=O)C6=O)CC4)cn3)nc2n(C2CCCC2)c1=O` (centres unmarked) [YX039-124, 3-(4-(3-(4-(6-((6-acetyl-8-cyclopentyl-5-methyl-7-oxo-7,8-dihydropyrido[2,3-d]pyrimidin-2-yl)amino)pyridin-3-yl)piperazin-1-yl)-3-oxopropyl)-1-oxoisoindolin-2-yl)piperidine-2,6-dione], the “suppression” value (CDK4/6 [1]) is reported as “especially effective in suppressing both CDK4/6 expression and CDK4/6 activity”.
In the case of `CC(=O)c1c(C)c2cnc(Nc3ccc(N4CCN(C(=O)CCc5cccc6c5C(=O)N(C5CCC(=O)NC5=O)C6=O)CC4)cn3)nc2n(C2CCCC2)c1=O` (centres unmarked) [YX039-147, 4-(3-(4-(6-((6-acetyl-8-cyclopentyl-5-methyl-7-oxo-7,8-dihydropyrido[2,3-d]pyrimidin-2-yl)amino)pyridin-3-yl)piperazin-1-yl)-3-oxopropyl)-2-(2,6-dioxopiperidin-3-yl)isoindoline-1,3-dione], the “suppression” value (CDK4/6 [1]) is reported as “especially effective in suppressing both CDK4/6 expression and CDK4/6 activity”.
For `CC(=O)c1c(C)c2cnc(Nc3ccc(N4CCCN(C(=O)CCCCCC(=O)N[C@H](C(=O)N5C[C@H](O)C[C@H]5C(=O)NCc5ccc(-c6scnc6C)cc5)C(C)(C)C)CC4)cn3)nc2n(C2CCCC2)c1=O` [YX044-18, (2S,4R)-1-((S)-2-(7-(4-(6-((6-acetyl-8-cyclopentyl-5-methyl-7-oxo-7,8-dihydropyrido[2,3-d]pyrimidin-2-yl)amino)pyridin-3-yl)-1,4-diazepan-1-yl)-7-oxoheptanamido)-3,3-dimethylbutanoyl)-4-hydroxy-N-(4-(4-methylthiazol-5-yl)benzyl)pyrrolidine-2-carboxamide], the “efficacy in inhibiting both CDK4/6 expression and CDK4/6 activity (decreased Rb phosphorylation)” value (CDK4/6 [2]) was “efficacy of CDK4/6 degraders, particularly XY028-133 and YX044-18”.
In the case of `CC(=O)c1c(C)c2cnc(Nc3ccc(N4CCCN(C(=O)CNc5cccc6c5C(=O)N(C5CCC(=O)NC5=O)C6=O)CC4)cn3)nc2n(C2CCCC2)c1=O` (centres unmarked) [YX044-19, 4-((2-(4-(6-((6-acetyl-8-cyclopentyl-5-methyl-7-oxo-7,8-dihydropyrido[2,3-d]pyrimidin-2-yl)amino)pyridin-3-yl)-1,4-diazepan-1-yl)-2-oxoethyl)amino)-2-(2,6-dioxopiperidin-3-yl)isoindoline-1,3-dione], the “efficacy in inhibiting both CDK4/6 expression and CDK4/6 activity (decreased Rb phosphorylation)” value (CDK4/6 [3]) is reported as “efficacy of CDK4/6 degraders, particularly XY028-140 and YX044-22 and YX044-19”.
